# Assay results from patent US9481654B2, “Compositions and methods for inhibition of the JAK pathway” (Rigel Pharmaceuticals, Inc., priority 2006, dated 2016).
# Counter-ions that a name gives are not always drawn.
# System: IL-4 stimulated CD23 upregulation in human Ramos B cells (JAK-1/JAK-3, Stat-6)
# Test: Assay for Ramos B-Cell Line Stimulated with IL-4 (CD23 upregulation, FACS)
# Assay type: cell-based
# Settings: Table III Example 3
# From the text: One means of assaying for such inhibition is detection of the effect of the 2,4-pyrimidinediamine compounds on the upregulation of downstream gene products. In the Ramos/IL4 assay, B-cells are stimulated with the cytokine Interleukin-4 (IL-4) leading to the activation of the JAK/Stat pathway through phosphorylation of the JAK family kinases, JAK1 and JAK3, which in turn phosphorylate and activate the transcription factor Stat-6. […] To study the effect of inhibitors (e.g., the 2,4-substituted pyrimindinediamine compounds described herein) on the JAK1 and JAK3 kinases, human Ramos B cells are stimulated with human IL-4. 20 to 24 hours post stimulation, cells are stained for upregulation of CD23 and analyzed using flow cytometry (FACS).
# B-cells stimulated with cytokine Interleukin-4 (IL-4) activate the JAK/Stat pathway through phosphorylation of the JAK family kinases, JAK-1 and JAK-3, which in turn phosphorylate and activate the transcription factor Stat-6. […] To study the effect of inhibitors on the JAK family kinases, human Ramos B cells are stimulated with human IL-4.
# Cells were maintained at a density of 3.5×10^5. The day before the experiment, Ramos B-cells were diluted to 3.5×10^5 cells/mL to ensure that they were in a logarithmic growth phase.
# Cells were spun down and suspended in RPMI with 5% serum. 5×10^4 cells were used per point in a 96-well tissue culture plate. Cells were pre-incubated with compound or DMSO (Sigma-Aldrich, St. Louis, Mo., Cat No. D2650) vehicle control for 1 hour in a 37° C. incubator. Cells were then stimulated with IL-4 (Peprotech Inc., Rocky Hill, N.J., Cat No. 200-04) for a final concentration of 50 units/mL for 20-24 hours. […] Detection was performed using a BD LSR I System Flow Cytometer, purchased from Becton Dickinson Biosciences of San Jose, Calif.
row,Compound,IC50
1,"Cc1cnc(Nc2cccc(S(=O)(=O)NC(=O)CNC(=O)OC(C)(C)C)c2)nc1Nc1cccc(CNS(=O)(=O)C2CC2)c1 [Compound I-140, N2-{3-N-[2-(t-butoxycarbonylamino)-1-oxoethyl]aminosulfonyl}phenyl-N4-(3-cyclopropylsulfonylaminomethyl)phenyl-5-methyl-2,4-pyrimidinediamine]",3.94 µM
2,"Cc1cnc(Nc2cccc(S(=O)(=O)N[C@H](C(=O)O)C(C)C)c2)nc1Nc1cccc(CNS(=O)(=O)C2CC2)c1 [Compound I-146, N2-[3-N-(L-Val)aminosulfonyl]phenyl-N4-(3-cyclopropylsulfonylaminomethyl)phenyl-5-methyl-2,4-pyrimidinediamine hydrogen chloride salt]",12.3 µM
3,"Cc1cnc(Nc2cccc(S(=O)(=O)NC3(C(=O)O)CCCC3)c2)nc1Nc1cccc(CNS(=O)(=O)C2CC2)c1 [Compound I-145, N2-[3-N-(cycloleucine)aminosulfonyl]phenyl-N4-(3-cyclopropylsulfonylaminomethyl)phenyl-5-methyl-2,4-pyrimidinediamine hydrogen chloride salt]",8.54 µM
4,"Cc1cnc(Nc2cccc(S(=O)(=O)NC(=O)CNC(=O)OCc3ccccc3)c2)nc1Nc1cccc(CNS(=O)(=O)C2CC2)c1 [Compound I-142, N2-{3-N-[2-(benzoxycarbonylamino)-1-oxoethyl]aminosulfonyl}phenyl-N4-(3-cyclopropylsulfonylaminomethyl)phenyl-5-methyl-2,4-pyrimidinediamine]",5.62 µM
5,"CCCC(=O)N(Cc1cccc(Nc2nc(Nc3cccc(S(N)(=O)=O)c3)ncc2C)c1)S(=O)(=O)C1CC1 [Compound I-224, N2-(3-aminosulfonyl)phenyl-N4-[3-(N-butyryl-N-cyclopropylsulfonyl)aminomethyl]phenyl-5-methyl-2,4-pyrimidinediamine]",0.0218 µM
6,"CCCCCC(=O)NS(=O)(=O)c1cccc(Nc2ncc(C)c(Nc3cccc(CN(C(=O)CCCCC)S(=O)(=O)C4CC4)c3)n2)c1 [Compound I-218, N4-[3-(N-cyclopropylsulfonyl-N-hexanoyl)aminomethyl]phenyl-N2-(3-hexanoylaminosulfonyl)phenyl-5-methyl-2,4-pyrimidinediamine]",3.8 µM
7,"CCCC(=O)NS(=O)(=O)c1cccc(Nc2ncc(C)c(Nc3cccc(CN(C(=O)CCC)S(=O)(=O)C4CC4)c3)n2)c1 [Compound I-222, N2-(3-butyrylaminosulfonyl)phenyl-N4-[3-(N-butyryl-N-cyclopropylsulfonyl)aminomethyl]phenyl-5-methyl-2,4-pyrimidinediamine Choline salt]",3.03 µM
8,"Cc1cnc(Nc2cccc(S(=O)(=O)NC(=O)CN)c2)nc1Nc1cccc(CNS(=O)(=O)C2CC2)c1 [Compound I-131, N2-[3-N-(2-amino-1-oxoethyl)aminosulfonyl]phenyl-N4-(3-cyclopropylsulfonylaminomethyl)phenyl-5-methyl-2,4-pyrimidinediamine]",0.557 µM
9,"CCC(=O)NS(=O)(=O)c1ccc(Nc2ncc(C)c(Nc3ccc(CN(C(=O)CC)S(=O)(=O)C4CC4)cc3)n2)cc1 [Compound I-77, N4-[4-(N-cyclopropylsulfonyl-N-propionyl)aminomethyl]phenyl-5-methyl-N2-(4-propionylaminosulfonyl)phenyl-2,4-pyrimidinediamine]",1.23 µM
10,"CCCC(=O)NS(=O)(=O)c1cccc(Nc2ncc(C)c(Nc3cccc(CNS(=O)(=O)C4CC4)c3)n2)c1 [Compound I-223, N2-(3-butyrylaminosulfonyl)phenyl-N4-(3-cyclopropylsulfonylaminomethyl)phenyl-5-methyl-2,4-pyrimidinediamine]",3.69 µM
11,"CCC(=O)NS(=O)(=O)c1cccc(Nc2ncc(F)c(Nc3ccc(CN(C(=O)CC)S(=O)(=O)C4CC4)cc3)n2)c1 [Compound I-58, N4-[4-(N-cyclopropylsulfonyl-N-propionyl)aminomethyl]phenyl-5-fluoro-N2-(3-propionylaminosulfonyl)phenyl-2,4-pyrimidinediamine]",11.1 µM
12,"Cc1cnc(Nc2cccc(S(=O)(=O)NC(=O)[C@H](Cc3ccccc3)NC(=O)OCc3ccccc3)c2)nc1Nc1cccc(CNS(=O)(=O)C2CC2)c1 [Compound I-139, N2-[3-N-(Cbz-L-Phe)aminosulfonyl]phenyl-N4-(3-cyclopropylsulfonylaminomethyl)phenyl-5-methyl-2,4-pyrimidinediamine]",3.32 µM
13,"CC(=O)NS(=O)(=O)c1cccc(Nc2ncc(C)c(Nc3cccc(CN(C(C)=O)S(=O)(=O)C4CC4)c3)n2)c1 [Compound I-193, N2-(3-acetamidosulfonyl)phenyl-N4-[3-(N-acetyl-N-cyclopropylsulfonyl)aminomethyl]phenyl-5-methyl-2,4-pyrimidinediamine]",1.89 µM
14,"CCC(=O)NS(=O)(=O)c1cccc(Nc2ncc(C)c(Nc3cccc(CN(C(=O)CC)S(=O)(=O)C4CC4)c3)n2)c1 [Compound I-226, N4-[3-(N-cyclopropylsulfonyl-N-propionyl)aminomethyl]phenyl-5-methyl-N2-(3-propionylaminosulfonyl)phenyl-2,4-pyrimidinediamine Choline salt]",5.49 µM
15,"CC(=O)NS(=O)(=O)c1ccc(Nc2ncc(C)c(Nc3ccc(CN(C(C)=O)S(=O)(=O)C4CC4)cc3)n2)cc1 [Compound I-194, N2-(4-acetamidosulfonyl)phenyl-N4-[4-(N-acetyl-N-cyclopropylsulfonyl)aminomethyl]phenyl-5-methyl-2,4-pyrimidinediamine]",1.65 µM
16,"CCCC(=O)NS(=O)(=O)c1cccc(Nc2ncc(C)c(Nc3cccc(CN(C(=O)CCC)S(=O)(=O)C4CC4)c3)n2)c1 [Compound I-203, N2-(3-butyrylaminosulfonyl)phenyl-N4-[3-(N-butyryl-N-cyclopropylsulfonyl)aminomethyl]phenyl-5-methyl-2,4-pyrimidinediamine]",3.02 µM
17,"CCC(=O)NS(=O)(=O)c1cc(Nc2ncc(F)c(Nc3ccc(CN(C(=O)CC)S(=O)(=O)C4CC4)cc3)n2)ccc1C [Compound I-60, N4-[4-(N-cyclopropylsulfonyl-N-propionyl)aminomethyl]phenyl-5-fluoro-N2-(4-methyl-3-propionylaminosulfonyl)phenyl-2,4-pyrimidinediamine]",7.08 µM
18,"N4-[3-(N-cyclopropylsulfonyl-N-valeryl)aminomethyl]phenyl-5-methyl-N2-(3-valerylaminosulfonyl)phenyl-2,4-pyrimidinediamine sodium salt [Compound I-221]",1.88 µM

# Same assay, conditions: Table III Example 3, sodium salt
row,Compound,IC50
1,"CC(=O)NS(=O)(=O)c1ccc(Nc2ncc(C)c(Nc3ccc(CN(C(C)=O)S(=O)(=O)C4CC4)cc3)n2)cc1 [Compound I-197, N2-(4-acetamidosulfonyl)phenyl-N4-[4-(N-acetyl-N-cyclopropylsulfonyl)aminomethyl]phenyl-5-methyl-2,4-pyrimidinediamine sodium salt]",1.55 µM
2,"CCC(=O)NS(=O)(=O)c1cc(Nc2ncc(F)c(Nc3ccc(CNS(=O)(=O)C4CC4)cc3)n2)ccc1C [Compound I-63, N4-(4-cyclopropylsulfonylaminomethyl)phenyl-5-fluoro-N2-(4-methyl-3-propionylaminosulfonyl)phenyl-2,4-pyrimidinediamine sodium salt]",9.45 µM
3,"CCC(=O)NS(=O)(=O)c1cccc(Nc2ncc(F)c(Nc3ccc(CNS(=O)(=O)C4CC4)cc3)n2)c1 [Compound I-61, N4-(4-cyclopropylsulfonylaminomethyl)phenyl-5-fluoro-N2-(3-propionylaminosulfonyl)phenyl-2,4-pyrimidinediamine sodium salt]",18.9 µM
4,"CCC(=O)NS(=O)(=O)c1cccc(Nc2ncc(F)c(Nc3ccc(CN(C(=O)CC)S(=O)(=O)C4CC4)cc3)n2)c1 [Compound I-62, N4-[4-(N-cyclopropylsulfonyl-N-propionyl)aminomethyl]phenyl-5-fluoro-N2-(3-propionylaminosulfonyl)phenyl-2,4-pyrimidinediamine sodium salt]",10.7 µM
5,"CCC(=O)NS(=O)(=O)c1ccc(Nc2ncc(C)c(Nc3ccc(CNS(=O)(=O)C4CC4)cc3)n2)cc1 [Compound I-88, N4-(4-cyclopropylsulfonylaminomethyl)phenyl-5-methyl-N2-(4-propionylaminosulfonyl)phenyl-2,4-pyrimidinediamine sodium salt]",0.0599 µM
6,"Cc1cnc(Nc2cccc(S(=O)(=O)NC(=O)CNC(=O)OC(C)(C)C)c2)nc1Nc1cccc(CNS(=O)(=O)C2CC2)c1 [Compound I-141, N2-{3-N-[2-(t-butoxycarbonylamino)-1-oxoethyl]aminosulfonyl}phenyl-N4-(3-cyclopropylsulfonylaminomethyl)phenyl-5-methyl-2,4-pyrimidinediamine sodium salt]",4.71 µM
7,"Cc1cnc(Nc2cccc(S(=O)(=O)NC(=O)CNC(=O)OCc3ccccc3)c2)nc1Nc1cccc(CNS(=O)(=O)C2CC2)c1 [Compound I-143, N2-{3-N-[2-(benzoxycarbonylamino)-1-oxoethyl]aminosulfonyl}phenyl-N4-(3-cyclopropylsulfonylaminomethyl)phenyl-5-methyl-2,4-pyrimidinediamine sodium salt]",7.29 µM
